The source of these data is patent US10406264B2, “Peptide having titanium-binding ability” (NANO INTELLIGENT BIOMEDICAL ENGINEERING CORPORATION. CO. LTD, priority 2016, dated 2019).

One data set deals with PDLSC cells. The data set can be described thus: cell viability test (trypan blue count) on peptide-coated titanium discs. The following applies: for cytotoxicity for cells: administered alone, 3 days of incubation, FIG. 5; for Total cell number (viable cells), Average: average of #1 and #2; for Total cell number (viable cells), Average / Total cell number (viable cells), #1 / Total cell number (viable cells), #2: PDLSC, 3 days culture, disc coated per Table 2 (peptides 100 μM, BMP-2 100 ng/ml); for Total cell number (viable cells), #1: replicate #1; for Total cell number (viable cells), #2: replicate #2. The format is cell-based. The procedure:
In order to evaluate whether or not a titanium binding peptide-linked osteogenic peptide (SEQ ID NO: 3 or SEQ ID NO: 4) and a titanium-binding peptide (SEQ ID NO: 1) are cytotoxic when these peptides are administered alone, a cell viability test was performed.
Specifically, one titanium disc was placed in each well of a 24-well low-attachment polystyrene plate and blocked with a blocking solution (0.1 M NaHCO3 (pH 8.6), 5 mg/ml BSA, 0.02% NaN3 (optional), filter sterilize) for at least 1 hour. Next, the blocking solution was discarded, and each well was washed three times or more with a washing solution (DPBS: Dulbeccos phosphate buffered saline), after which 50 μl of the solution shown in Table 2 below was dispensed and coated on the surface of each titanium disc. Each well was incubated at room temperature for 15 hours, and then washed three times or more with a washing solution (DPBS). Next, 3×10^4 PDLSC cells suspended in 50 μl of a medium (Minimum Essential Medium Eagle Alpha Modifications, Hyclone, USA) containing 10% FBS (Fetal Bovine Serum) and 1% antibiotic-antimycotic solution (Thermo Fisher Scientific, USA) were dispensed per titanium disc. […] Next, the cells were detached, stained with trypan blue, and counted with a hematocytometer to determine the number of viable cells.

Data set [1] can be described thus: luminescent image analysis with enhanced chemiluminescence (ECL) solution. In kind it is binding. The following applies: ECL solution as substrate, FIG. 2. The method, then: Specifically, washing was performed at least three times with suitable washing solution to remove 2,2′-AZINO-BIS used as a substrate in the above procedure, and then analysis was performed with a luminescent image analyzer using enhanced chemiluminescence (ECL) solution.

A short description of data set [2]: binding assay using an avidin-biotin complex (binding affinity for titanium). Conditions: biotin-labeled peptide 100 nM to 1 μM, 15 hours at room temperature, FIG. 1. The procedure: In order to examine the binding affinities of the peptides synthesized in Example 1 and Comparative Examples 1 and 2 for titanium, the peptides were labeled with biotin. Each of the peptides was biotinylated using EZ-Link Sulfo-NHS-Biotin (Pierce Biotechnology, USA) according to the manufacturer's instruction, and unbound byproducts were removed by ultrafiltration that is a membrane separation method based on a pressure difference. The molecular weights of the synthesized products were measured by mass spectrometry. The synthesized products were analyzed and purified by reverse phase liquid chromatography. For analysis, a C18 column having a diameter of 4.6 mm was used, and 0.1% TFA/H2O and 0.092% TFA/acetonitrile were flushed onto the column at a rate of 1 ml/min with a gradient of 0-60% for 30 minutes. The wavelength of the UV detector used was 220 nm. For purification, a column having a diameter of 2.2 cm was used, and a flow rate of 20 ml/min and the solvent and detection wavelength as described above were used. Only the biotin-labeled peptide fraction was collected, and concentrated using a rotary evaporator to remove the solvent, followed by freeze-drying.
The binding affinity of the titanium-binding peptide for titanium was measured by performing a binding assay using an avidin-biotin complex. Specifically, one titanium disc was placed in each well of a 24-well polystyrene plate, and then blocked with a blocking buffer (0.1 M NaHCO3 (pH 8.6), 5 mg/ml BSA, 0.02% NaN3 (optional), filter sterilize) for at least one hour. […] Each titanium disc was treated with 50 μl of 1% SDS solution to stop the reaction, and the absorbance at 405 nm was measured.

A short description of data set [3]: maximum binding amount of titanium-binding peptide, avidin-biotin binding assay. The method, then:
To examine the maximum binding amount of the titanium-binding peptide TBP (SEQ ID NO: 1) per unit area of the titanium disc surface, a binding assay using an avidin-biotin complex was performed. Specifically, one titanium disc was placed in each well of a 24-well polystyrene plate, and then blocked with a blocking buffer (0.1 M NaHCO3 (pH 8.6), 5 mg/ml BSA, 0.02% NaN3 (optional), filter sterilize) for at least one hour. Next, the blocking buffer was discarded, and each titanium disc was strongly washed six times or more with a washing buffer (TBS+0.1% [v/v] Tween-20), after which 50 μl of each of the titanium-binding peptide TBP (SEQ ID NO: 1) of Example 1 and the peptides TBP-C(SEQ ID NO: 2) and ZBP (SEQ ID NO: 5, Korean Patent Application No. 10-2015-0048441) of Comparative Examples 1 and 2, which were biotin-labeled, synthesized, separated and purified in Example 3-1, was dispensed to the surface of each titanium disc at a concentration ranging from 100 nM to 40 mM. Each titanium disc was incubated at room temperature for 15 hours, and then washed strongly with a washing buffer, and 50 μl of a 1:500 dilution of ExtrAvidin-peroxidase (Cat. #E2886, Sigma-Aldrich, USA) in a blocking buffer was dispensed to the surface of each titanium disc. Each titanium disc was incubated at room temperature for 1 hour, and then washed strongly with a washing buffer, after which 50 μl of a substrate solution (2,2′-AZINO-BIS, Cat. #A3219, Sigma-Aldrich, USA) was dispensed to the surface of each titanium disc and allowed to react at room temperature for 20 minutes so as to develop color. Each titanium disc was treated with 50 μl of 1% SDS solution to stop the reaction, and the absorbance at 405 nm was measured.

Data set [4] relates to periodontal ligament stem cells (PDLSCs). The data set can be described thus: mineralization of periodontal ligament stem cells (Alizarin red S) on coated titanium discs. The format is cell-based. Conditions: day 18; significant p<0.05, not significant p>0.05. The procedure:
Specifically, one titanium disc was placed in each well of a 24-well low-attachment polystyrene plate and blocked with a blocking solution (0.1 M NaHCO3 (pH 8.6), 5 mg/ml BSA, 0.02% NaN3 (optional), filter sterilize) for at least 1 hour. […] Each well was incubated at room temperature for 15 hours, and then washed three times or more with a washing solution (DPBS). Next, 3×10^4 PDLSC cells suspended in 50 μl of a medium (Minimum Essential Medium Eagle Alpha Modifications, Hyclone, USA) containing 10% FBS (Fetal Bovine Serum) and 1% antibiotic-antimycotic solution (Thermo Fisher Scientific, USA) were dispensed per titanium disc.

Where a SMILES comes first, the peptide text is derived from it. Where no end group is shown, it is not given here. [ ]: non-standard residue; d: D form. Ahx = NCCCCCC(=O)O

In the case of `CC[C@H](C)[C@H](NC(=O)[C@H](CC(=O)O)NC(=O)[C@@H]1CCCN1C(=O)[C@H](CCCNC(=N)N)NC(=O)[C@H](CCCNC(=N)N)NC(=O)[C@H](Cc1ccccc1)NC(=O)[C@H](CCCCN)NC(=O)[C@H](CCCCN)NC(=O)[C@H](CO)NC(=O)[C@H](CCCCN)NC(=O)[C@H](CO)NC(=O)[C@H](CCCNC(=N)N)NC(=O)[C@H](CC(C)C)NC(=O)CNC(=O)CCCCCNC(=O)[C@H](Cc1c[nH]cn1)NC(=O)[C@@H](NC(=O)[C@@H](NC(=O)[C@@H]1CCCN1C(=O)[C@H](CCCNC(=N)N)NC(=O)[C@H](Cc1c[nH]cn1)NC(=O)CNC(=O)[C@@H](NC(=O)[C@H](Cc1ccc(O)cc1)NC(=O)[C@H](CC(N)=O)NC(=O)[C@H](CC(C)C)NC(=O)[C@@H](N)CO)[C@@H](C)O)C(C)C)C(C)C)C(=O)N[C@@H](CCC(N)=O)C(=O)N[C@@H](Cc1ccc(O)cc1)C(=O)N1CCC[C@H]1C(=O)N[C@@H](CC(=O)O)C(=O)N[C@@H](C)C(N)=O` [TBP-Linker-osteogenic peptide] (H-SLNYTGHRPVVH[Ahx]GLRSKSKKFRRPDIQYPDA-NH2), in the data set with PDLSC cells, the cytotoxicity for cells result is reported as “not cytotoxic”; the “Total cell number (viable cells), Average” value (from here on “Total cell number … Average”) is 6.8 × 10^4; the “Total cell number (viable cells), #1” value is 6.0 × 10^4; the “Total cell number (viable cells), #2” value is recorded as 7.5 × 10^4.

As for “GLRSKSKKFRRPDIQYPDA-NH2 [Osteogenic peptide, reference compound]”, in the data set on PDLSC cells, the “Total cell number … Average” value is 7.0 × 10^4; the “Total cell number (viable cells), #1” value is listed as 7.5 × 10^4; the “Total cell number (viable cells), #2” value is listed as 6.5 × 10^4.

Consider SLNATGARAVVA [TBP-C], for which the “binding to titanium disc detected by luminescent image analyzer” value (“binding to titanium disc detected” for short) in data set [1] is reported as “hardly bind to a titanium disc”. Moreover, the “binding to the titanium disc surface (absorbance at 405 nm)” value (from here on “binding to the titanium disc surface”) in data set [2] was “do not bind to the titanium disc surface”.

For the compound SLNYTGHRPVVH-NH2 [TBP], in data set [3] (100 nM to 40 mM tested, absorbance at 405 nm, FIGS. 3 and 4), the “concentration showing the maximum absorbance value” is 100 µM. The “maximum amount of titanium-binding peptide bound to the surface of one titanium disc” value in data set [3] (back-calculation from molecular weight and dispensing amount, disc diameter 10 mm) is 8.025 µg. Besides, in data set [3] (disc diameter 10 mm), the “amount of titanium-binding peptide fixed per mm^2 of the titanium disc surface” value was “about 0.1022 μg per mm^2”. Moreover, in the data set on PDLSC cells, the cytotoxicity for cells result is on record as “not cytotoxic”; the “Total cell number … Average” value was 7.0 × 10^4; the “Total cell number (viable cells), #1” value is reported as 7.0 × 10^4; the “Total cell number (viable cells), #2” value was 7.0 × 10^4. For the same compound, the “binding to titanium disc detected” value in data set [1] was “binds to a titanium disc”. For the same compound, the “binding to the titanium disc surface” value in data set [2] was “binds to the titanium disc surface in a concentration-dependent manner”. For the same compound, in data set [4], the “mineralization (absorbance at 570 nm), difference versus NT (negative control) group” value was “no statistically significant difference”.

As to “SLNYTGHRPVVHGLRSKSKKFRRPDIQYPDA-NH2 [TBP-osteogenic peptide]”, in the data set with PDLSC cells, the cytotoxicity for cells entry is given as “not cytotoxic”; the “Total cell number … Average” value is 7.8 × 10^4; the “Total cell number (viable cells), #1” value is recorded as 7.5 × 10^4; the “Total cell number (viable cells), #2” value is 8.0 × 10^4.

Turning to “VSPFGTKWSPFV (Zirconia Binding Peptide) [ZBP]”, the “binding to titanium disc detected” value in data set [1] is “hardly bind to a titanium disc”. Besides, in data set [2], the “binding to the titanium disc surface” value is on record as “do not bind to the titanium disc surface”.
